Test results taken from patent US20240316093A1, “NEPHROTOXICITY REDUCING AGENT” (NIPPON SHINYAKU CO., LTD., priority 2021, published 2024).

Tests used:
C57BL/6J male mice [1] = test: BUN and Cre values in serum after tail-vein administration of PMO dosing solutions with or without sucrose or trehalose (Example 5); details: Example 5, PMO Nos. 1, 8 and 9 with sucrose or trehalose
Protocol: Also, the antisense oligomers of PMO Nos. 1, 8, and 9 were each dissolved in water for injection comprising 0.9% sodium chloride, and a solution obtained by dissolving trehalose (manufactured by FUJIFILM Wako Pure Chemical Corporation) with physiological saline was added thereto to prepare a dosing solution comprising each of the antisense oligomers and trehalose at the concentrations shown in Tables 15 to 17.
The obtained dosing solutions were administered into the tail vein of 6-week-old C57BL/6J male mice (N=2 to 3) at 20 mL/kg. Next day, serum was collected from the mice, and the blood urea nitrogen (BUN) values and blood creatinine (Cre) values were measured with the urease-GIDH method and the enzymatic method, respectively, using an automatic biochemical analyzer JCA-BM8060 (manufactured by JEOL Ltd.).

C57BL/6J male mice [2] = test: BUN and Cre values in serum after tail-vein administration of PMO dosing solutions with or without sucrose (Example 2); details: Example 2, PMO Nos. 8 and 9 with sucrose
Protocol: (§1) The obtained dosing solutions were administered into the tail vein of 6-week-old C57BL/6J male mice (N=3) at 10 and 12 mL/kg. Next day, serum was collected from the mice, and the blood urea nitrogen (BUN) values and blood creatinine (Cre) values were measured with the urease-GIDH method and the enzymatic method, respectively, using an automatic biochemical analyzer JCA-BM8060 (manufactured by JEOL Ltd.). […] Sections obtained by slicing the samples were subjected to hematoxylin-eosin staining and a histopathological test of the sections was performed.

[3] = tested on: kidney of C57BL/6J male mice; test: Histopathological test of kidney (hematoxylin-eosin) after PMO No. 8 with or without sucrose (Example 2); details: Example 2, histopathological test, PMO No. 8 with sucrose
Protocol: as §1

[4] = tested on: kidney of C57BL/6J male mice; details: mouse, in vivo
Protocol: The obtained dosing solutions were administered into the tail vein of 6-week-old C57BL/6J male mice (N=5) at 20 mL/kg. Next day, the mice were subjected to autopsy, and formalin-fixed paraffin-embedded samples of the respective kidneys were prepared. Sections obtained by slicing the samples were subjected to hematoxylin-eosin staining and a histopathological test of the sections was performed.

[5] = Precipitation suppressing effect of trehalose, absorbance at 620 nm in the presence of ions assumed to be in urine (Example 7); type: physicochemical; details: Example 7, PMO Nos. 1, 2, 7, 8; aqueous solution of trehalose versus water for injection; KCl and NaCl, 37° C.
Protocol: Each of the antisense oligomers was dissolved in water for injection or an aqueous solution of trehalose, and the mixture was then mixed with an aqueous solution comprising potassium chloride and sodium chloride assumed to be in urine. The absorbance at 620 nm of the solution thus mixed was measured using a plate reader, Infinite F200 Pro (manufactured by Tecan Group Ltd.) under the heating condition of 37° C. […] Accordingly, conditions were set under which the precipitation was observed using water for injection as a medium for each sequence. Another measurement was performed under the same conditions as obtained except that only the medium was changed to an aqueous solution of trehalose, and then the absorbance obtained under both the conditions was compared to each other. When the absorbance was increased, precipitation was determined to be observed, and a time until the precipitation was observed and the increased value of the absorbance were evaluated. When the aqueous solution of trehalose was used as the medium, it was determined that the precipitation suppressing effect was presented in a case where the time until the precipitation was observed was longer or in a case where the increased value of the absorbance was smaller than the case of using the water for injection as the medium.

OC[C@H]1O[C@@](CO)(O[C@H]2O[C@H](CO)[C@@H](O)[C@H](O)[C@H]2O)[C@@H](O)[C@@H]1O [sucrose]
Nephrotoxicity reducing effect (BUN values and Cre values versus dosing solution comprising neither sucrose nor trehalose) (C57BL/6J male mice [1]): confirmed to reduce nephrotoxicity
Nephrotoxicity reducing effect (BUN values and Cre values versus control dosing solution comprising no sucrose) (C57BL/6J male mice [2]): confirmed to reduce nephrotoxicity
Amount of precipitates (basophilic substances in the lumens of renal tubules) [3]: amount of precipitates decreased according to the concentrations of sucrose
Nephrotoxicity reducing effect (toxicological findings on the histopathological test of the kidney) [4]: confirmed to reduce nephrotoxicity

OC[C@H]1O[C@H](O[C@H]2O[C@H](CO)[C@@H](O)[C@H](O)[C@H]2O)[C@H](O)[C@@H](O)[C@@H]1O [trehalose]
Nephrotoxicity reducing effect (BUN values and Cre values versus dosing solution comprising neither sucrose nor trehalose) (C57BL/6J male mice [1]): confirmed to reduce nephrotoxicity
Precipitation suppressing effect (time until the precipitation was observed, increase of the absorbance at 620 nm) [5]: suppress the precipitation of antisense oligomers
